Measurements published in paper PMC11378297, “Discovery and Profiling of New Multimodal Phenylglycinamide Derivatives as Potent Antiseizure and Antinociceptive Drug Candidates” (ACS Chemical Neuroscience, 2024).
Read-outs that look alike come from different tables or passages of the source. Values belong to the molecule of their own block, whether it stands above or below them.

Tests used:
[1] = target: T1, Voltage-Gated Sodium channel hNav1.1 (Homo sapiens, UniProt P35498); assay: human sodium ion channel cell based automated patch clamp assay, hNav1.1
T1 construct: Eurofins Discovery (St. Charles, MO, USA)
Method: (§1) Therefore, as a part of the more detailed functional characterization using automated patch clamp method, we tested the influence of (R)-32 on sodium currents mediated by several Navx channels comprising 5 different human subunits, namely, Nav1.1, Nav1.2, Nav1.3, Nav1.6, and Nav1.7, which are involved in both seizure and/or pain modulation.[74],[80],[81] As summarized in Tables S4–S8, (R)-32 starting from 10 μM effectively and in concentration-dependent manner decreased sodium currents mediated by all aforementioned sodium channel subunits. Furthermore, (R)-32 appeared to bind exclusively to sodium channels that are in an inactivated state (see pulse 2 in Tables S4–S8), but not to the channels that are in an open state (pulse 1) (for additional details, see Supporting Information).
(§2) Human sodium ion channels cell based automated patch clamp assay
(§3) Human sodium ion channels cell based automated patch clamp assays: sodium channels exist in, a) a resting or closed state at -120 mV, b) a transient open state that inactivates to c) inactivated state at -10 mV. Sodium current inhibition within 1-2 ms of channel opening at 0 mV is open channel inhibition (pulse 1). In order to completely inactivate the sodium channels and facilitate inactivated state-dependent binding of the drug, the channels were kept at […] ( -10 mV) longer (pulsed for 500 ms) and then stepped back to -120 mV for 10 ms to recover from inactivation into resting or closed state (but the channels that had drug bound to them will not recover from inactivation and will not open) before stepping to -10 mV for 50 ms (pulse 2) to mea sure sodium channels that are available to open. The higher inhibition seen at pulse 2 is due to inactivated state -dependent inhibition. Pulse 1 and 2 are used to investigate drug binding to the open state and inactivated state of the Na channels, respectively. Each concentration of compound is applied for 5 minutes. The results obtained for (R)-32 are summerized in Tables S4–S8.
Table S4. Effect of the (R)-32 on subunit Nav1.1.
Voltage-Gated Sodium channel hNav1.1
(§4) Compound Concentration Measurement % Inhibition
(§5) Data interpretation: Results showing inhibition greater than 50% are considered to represent significant effects of test compound and have been bolded for (R)-32 for better visualization. The studies were carried out in Eurofins Discovery (St. Charles, MO, USA).

[2] = target: T2, Voltage-Gated Sodium channel hNav1.3 (Homo sapiens, UniProt Q9NY46); assay: human sodium ion channel cell based automated patch clamp assay, hNav1.3
T2 construct: Eurofins Discovery (St. Charles, MO, USA)
T2 sequence (Q9NY46 whole entry): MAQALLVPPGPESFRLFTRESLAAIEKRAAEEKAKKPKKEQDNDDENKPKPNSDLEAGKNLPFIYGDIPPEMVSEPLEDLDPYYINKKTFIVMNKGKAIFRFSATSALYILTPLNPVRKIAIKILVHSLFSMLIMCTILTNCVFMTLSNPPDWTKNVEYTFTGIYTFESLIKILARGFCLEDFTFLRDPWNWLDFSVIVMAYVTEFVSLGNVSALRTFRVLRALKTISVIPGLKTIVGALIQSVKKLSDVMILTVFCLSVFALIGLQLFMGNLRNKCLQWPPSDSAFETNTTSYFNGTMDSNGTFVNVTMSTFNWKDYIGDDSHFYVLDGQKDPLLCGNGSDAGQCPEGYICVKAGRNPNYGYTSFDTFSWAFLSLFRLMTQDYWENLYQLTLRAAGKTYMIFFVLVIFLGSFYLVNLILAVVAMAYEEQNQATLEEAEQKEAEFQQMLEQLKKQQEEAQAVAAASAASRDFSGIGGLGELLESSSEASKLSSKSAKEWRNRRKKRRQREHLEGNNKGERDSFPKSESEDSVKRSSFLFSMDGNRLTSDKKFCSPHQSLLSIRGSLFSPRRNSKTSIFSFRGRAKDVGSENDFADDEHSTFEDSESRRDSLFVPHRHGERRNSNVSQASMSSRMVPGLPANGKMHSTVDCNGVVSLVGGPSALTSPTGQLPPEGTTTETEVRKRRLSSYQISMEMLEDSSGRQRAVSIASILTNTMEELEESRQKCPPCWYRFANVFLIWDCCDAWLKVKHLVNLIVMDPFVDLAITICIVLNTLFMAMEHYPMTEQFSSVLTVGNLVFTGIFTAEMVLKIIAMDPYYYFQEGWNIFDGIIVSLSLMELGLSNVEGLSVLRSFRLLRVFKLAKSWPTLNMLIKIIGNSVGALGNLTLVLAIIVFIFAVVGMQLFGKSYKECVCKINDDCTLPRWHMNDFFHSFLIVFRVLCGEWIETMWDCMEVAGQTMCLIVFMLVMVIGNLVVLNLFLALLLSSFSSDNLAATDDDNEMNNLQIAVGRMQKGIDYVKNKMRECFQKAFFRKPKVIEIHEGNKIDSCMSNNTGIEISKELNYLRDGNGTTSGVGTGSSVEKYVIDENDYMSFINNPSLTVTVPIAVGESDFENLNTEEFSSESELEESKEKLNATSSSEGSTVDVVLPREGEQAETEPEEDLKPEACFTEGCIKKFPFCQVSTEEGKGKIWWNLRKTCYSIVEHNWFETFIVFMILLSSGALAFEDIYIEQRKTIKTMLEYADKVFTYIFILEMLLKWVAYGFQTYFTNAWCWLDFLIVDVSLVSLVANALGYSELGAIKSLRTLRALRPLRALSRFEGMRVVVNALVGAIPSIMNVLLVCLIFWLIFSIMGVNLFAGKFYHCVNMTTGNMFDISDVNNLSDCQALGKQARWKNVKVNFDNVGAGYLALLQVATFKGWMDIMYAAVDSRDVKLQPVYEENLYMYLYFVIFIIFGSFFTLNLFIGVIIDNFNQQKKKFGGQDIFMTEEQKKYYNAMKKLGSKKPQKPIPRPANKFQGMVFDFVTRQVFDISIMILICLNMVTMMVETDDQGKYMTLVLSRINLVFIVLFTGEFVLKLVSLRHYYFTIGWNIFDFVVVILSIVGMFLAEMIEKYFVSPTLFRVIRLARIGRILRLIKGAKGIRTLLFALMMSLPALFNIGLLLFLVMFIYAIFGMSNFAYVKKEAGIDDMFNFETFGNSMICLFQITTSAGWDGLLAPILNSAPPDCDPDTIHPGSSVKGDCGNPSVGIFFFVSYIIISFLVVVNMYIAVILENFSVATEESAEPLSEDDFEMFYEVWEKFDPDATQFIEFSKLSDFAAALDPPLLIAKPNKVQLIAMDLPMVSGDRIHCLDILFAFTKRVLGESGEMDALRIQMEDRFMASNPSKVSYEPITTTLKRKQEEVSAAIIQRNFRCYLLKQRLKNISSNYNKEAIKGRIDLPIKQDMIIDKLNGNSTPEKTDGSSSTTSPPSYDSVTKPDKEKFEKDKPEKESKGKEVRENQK
Method: as §1, §2
as §3, with “S4–S8. […]” for “S4–S8.”
as §4, §5

[3] = test system: formalin-induced pain, mice; assay: formalin test; type: in vivo, mouse
[4] = target: T3, TRPM8 (h) (Homo sapiens, UniProt Q7Z2W7); assay: TRPM8 (h) (antagonist effect); type: cell-based; settings: HEK293, human recombinant HEK-293 cell, read-out: % inhibition of control agonist response
T3 construct: Eurofins
T3 sequence (Q7Z2W7 whole entry): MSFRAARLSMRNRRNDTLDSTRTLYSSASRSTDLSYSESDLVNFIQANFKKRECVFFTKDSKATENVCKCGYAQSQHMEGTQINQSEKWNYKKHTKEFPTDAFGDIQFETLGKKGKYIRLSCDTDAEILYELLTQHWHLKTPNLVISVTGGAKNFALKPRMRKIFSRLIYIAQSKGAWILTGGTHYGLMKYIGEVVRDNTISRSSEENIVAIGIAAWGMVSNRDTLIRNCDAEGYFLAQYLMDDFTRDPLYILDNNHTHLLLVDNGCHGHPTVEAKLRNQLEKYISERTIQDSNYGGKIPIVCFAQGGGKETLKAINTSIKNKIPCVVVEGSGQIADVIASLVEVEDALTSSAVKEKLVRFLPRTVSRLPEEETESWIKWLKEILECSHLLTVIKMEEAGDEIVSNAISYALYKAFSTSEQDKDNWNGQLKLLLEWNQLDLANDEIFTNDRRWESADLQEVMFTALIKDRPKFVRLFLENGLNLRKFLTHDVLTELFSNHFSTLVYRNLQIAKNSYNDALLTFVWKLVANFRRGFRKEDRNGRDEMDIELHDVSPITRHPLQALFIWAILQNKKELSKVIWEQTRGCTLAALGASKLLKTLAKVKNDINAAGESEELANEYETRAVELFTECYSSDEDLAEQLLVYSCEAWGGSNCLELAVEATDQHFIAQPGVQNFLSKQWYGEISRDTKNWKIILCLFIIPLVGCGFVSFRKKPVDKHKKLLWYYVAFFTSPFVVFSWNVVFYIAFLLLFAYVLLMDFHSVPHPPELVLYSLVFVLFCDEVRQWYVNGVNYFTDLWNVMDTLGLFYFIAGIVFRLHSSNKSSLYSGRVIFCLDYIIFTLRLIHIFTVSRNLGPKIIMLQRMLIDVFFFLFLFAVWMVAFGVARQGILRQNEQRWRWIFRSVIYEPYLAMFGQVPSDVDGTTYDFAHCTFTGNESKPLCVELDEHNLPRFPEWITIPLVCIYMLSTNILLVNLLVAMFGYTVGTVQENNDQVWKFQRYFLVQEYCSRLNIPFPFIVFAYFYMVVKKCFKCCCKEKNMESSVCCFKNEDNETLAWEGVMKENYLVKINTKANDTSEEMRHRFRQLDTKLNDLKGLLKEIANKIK
Method: Using previously described testing methodologies, binding/functional tests were conducted on a commercial basis at Eurofins Laboratories (Poitiers, France) and Eurofins Panlabs Discovery Services Taiwan, Ltd. (New Taipei City, Taiwan); see Table S9 for more information.
Table S9. Radioligand binding and functional assays. […]
TRPM8 (h) (antagonist effect) […]
Assays were performed commercially in Eurofins Laboratories (Poitiers, France) or Eurofins Panlabs Discovery Services
Taiwan, Ltd. (New Taipei City, Taiwan).

[5] = test system: capsaicin-induced pain, mice; assay: capsaicin-induced pain test; type: in vivo; settings: Mus musculus, ip, 30 min before capsaicin
[6] = test system: 6 Hz (44 mA) seizures, mice; assay: 6 Hz (44 mA) seizure test; type: in vivo; settings: Mus musculus, ip, pretreatment time 0.5 h
[7] = hNav1.1, Pulse 1 (open state), read-out: % Inhibition Mean
[8] = hNav1.1, Pulse 1 (open state), read-out: % Inhibition n1
[9] = hNav1.1, Pulse 1 (open state), read-out: % Inhibition n2
[10] = hNav1.1, Pulse 2 (inactivated state), read-out: % Inhibition Mean
[11] = hNav1.1, Pulse 2 (inactivated state), read-out: % Inhibition n1
[12] = hNav1.1, Pulse 2 (inactivated state), read-out: % Inhibition n2
[13] = hNav1.3, Pulse 1 (open state), read-out: % Inhibition Mean
[14] = hNav1.3, Pulse 1 (open state), read-out: % Inhibition n1
[15] = hNav1.3, Pulse 1 (open state), read-out: % Inhibition n2
[16] = hNav1.3, Pulse 2 (inactivated state), read-out: % Inhibition Mean
[17] = hNav1.3, Pulse 2 (inactivated state), read-out: % Inhibition n1
[18] = hNav1.3, Pulse 2 (inactivated state), read-out: % Inhibition n2

- inhibition at 3 µM [1, 7]: 3.28%
- inhibition at 3 µM [1, 8]: 4.33%
- inhibition at 3 µM [1, 9]: 2.23%
- inhibition at 30 µM [1, 7]: 16.2%
- inhibition at 30 µM [1, 8]: 20.5%
- inhibition at 30 µM [1, 9]: 11.9%
- inhibition at 300 µM [1, 7]: 89.7%
- inhibition at 300 µM [1, 8]: 91%
- inhibition at 300 µM [1, 9]: 88.4%
- inhibition at 3 µM [1, 10]: 54.9%
- inhibition at 3 µM [1, 11]: 58.3%
- inhibition at 3 µM [1, 12]: 51.5%
- inhibition at 30 µM [1, 10]: 95.7%
- inhibition at 30 µM [1, 11]: 96.6%
- inhibition at 30 µM [1, 12]: 94.8%
- inhibition at 300 µM [1, 10]: 101%
- inhibition at 300 µM [1, 11]: 102%
- inhibition at 300 µM [1, 12]: 100%
- inhibition at 3 µM [2, 13]: 0.75%
- inhibition at 3 µM [2, 14]: 3.41%
- inhibition at 3 µM [2, 15]: -1.92%
- inhibition at 30 µM [2, 13]: 9.85%
- inhibition at 30 µM [2, 14]: 10.3%
- inhibition at 30 µM [2, 15]: 9.44%
- inhibition at 300 µM [2, 13]: 84.8%
- inhibition at 300 µM [2, 14]: 81.8%
- inhibition at 300 µM [2, 15]: 87.8%
- inhibition at 3 µM [2, 16]: 56.1%
- inhibition at 3 µM [2, 17]: 56.1%
- inhibition at 3 µM [2, 18]: 56.1%
- inhibition at 30 µM [2, 16]: 100%
- inhibition at 30 µM [2, 17]: 98.9%
- inhibition at 30 µM [2, 18]: 101%
- inhibition at 300 µM [2, 16]: 101%
- inhibition at 300 µM [2, 17]: 101%
- inhibition at 300 µM [2, 18]: 102%
SMILES: CCCCNc1ccc(C(=O)OCCN(C)C)cc1 [Tetracaine, reference compound]

SMILES: CC(=O)N[C@@H](C(=O)N1CCN(c2cccc(OC(F)(F)F)c2)CC1)c1ccccc1 [(R)-32, (R)-N-(2-Oxo-1-phenyl-2-(4-(3-(trifluoromethoxy)phenyl)piperazin-1-yl)ethyl)acetamide]
- nociceptive response, acute phase of the formalin test ([3]; 100 mg/kg i.p., 0–5 min after formalin): decreased the nociceptive response
- nociceptive reaction, second phase of the formalin test ([3]; 25, 50 and 100 mg/kg i.p.): inhibited nociceptive reaction at all tested doses
- ED50 ([3]; Mus musculus, ip, mice, i.p., phase II, read-out: ED50 in the late phase of the formalin test): 35.7 mg/kg
- inhibition at 1 µM [1, 7]: 1.61%
- inhibition at 1 µM [1, 8]: 2.91%
- inhibition at 1 µM [1, 9]: 0.31%
- inhibition at 10 µM [1, 7]: 1.2%
- inhibition at 10 µM [1, 8]: -0.28%
- inhibition at 10 µM [1, 9]: 2.68%
- inhibition at 100 µM [1, 7]: 31%
- inhibition at 100 µM [1, 8]: 24%
- inhibition at 100 µM [1, 9]: 38%
- inhibition at 1 µM [1, 10]: 1.92%
- inhibition at 1 µM [1, 11]: 1.74%
- inhibition at 1 µM [1, 12]: 2.11%
- inhibition at 10 µM [1, 10]: 41.9%
- inhibition at 10 µM [1, 11]: 45.3%
- inhibition at 10 µM [1, 12]: 38.6%
- inhibition at 100 µM [1, 10]: 97.6%
- inhibition at 100 µM [1, 11]: 97.9%
- inhibition at 100 µM [1, 12]: 97.4%
- inhibition at 10 µM [4]: 12.6%
- ED50 [5]: 20.2 mg/kg
- inhibition at 1 µM [2, 13]: -3.38%
- inhibition at 1 µM [2, 14]: -7.33%
- inhibition at 1 µM [2, 15]: 0.56%
- inhibition at 10 µM [2, 13]: -3.18%
- inhibition at 10 µM [2, 14]: -8.46%
- inhibition at 10 µM [2, 15]: 2.11%
- inhibition at 100 µM [2, 13]: 6.75%
- inhibition at 100 µM [2, 14]: 5.68%
- inhibition at 100 µM [2, 15]: 7.82%
- inhibition at 1 µM [2, 16]: -2.78%
- inhibition at 1 µM [2, 17]: -5.59%
- inhibition at 1 µM [2, 18]: 0.03%
- inhibition at 10 µM [2, 16]: 39.5%
- inhibition at 10 µM [2, 17]: 42.1%
- inhibition at 10 µM [2, 18]: 37%
- inhibition at 100 µM [2, 16]: 99.1%
- inhibition at 100 µM [2, 17]: 99.6%
- inhibition at 100 µM [2, 18]: 98.6%
- ED50 [6]: 26.5 mg/kg
